Experimental data from patent publication US11851406B2, “Positive allosteric modulators of the muscarinic acetylcholine receptor M1” (Vanderbilt University, priority 2018, dated 2023).

Legend:
human mAChR M1 [1] = target: T1, human mAChR M1 (Homo sapiens, UniProt P11229); test: mAChR M1 cell-based functional assay (calcium mobilization), agonist activity upon compound addition alone; conditions: CHO-K1 cells expressing hM1; for EC50: calcium mobilization upon compound addition, no acetylcholine; for Emax: compound alone, relative to the maximum for acetylcholine
T1 sequence (P11229 1-460): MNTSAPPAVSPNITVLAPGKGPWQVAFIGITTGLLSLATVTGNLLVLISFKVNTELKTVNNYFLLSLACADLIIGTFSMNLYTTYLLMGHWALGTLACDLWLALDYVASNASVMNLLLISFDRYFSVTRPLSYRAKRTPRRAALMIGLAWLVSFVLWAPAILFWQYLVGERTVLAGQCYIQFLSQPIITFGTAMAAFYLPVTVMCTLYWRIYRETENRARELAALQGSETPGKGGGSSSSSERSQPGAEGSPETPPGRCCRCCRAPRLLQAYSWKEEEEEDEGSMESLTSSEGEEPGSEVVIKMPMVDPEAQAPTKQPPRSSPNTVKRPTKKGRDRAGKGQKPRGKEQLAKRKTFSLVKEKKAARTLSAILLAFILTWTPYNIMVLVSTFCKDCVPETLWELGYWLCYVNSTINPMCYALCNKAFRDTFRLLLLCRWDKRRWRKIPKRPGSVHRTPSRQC
From the text: (§1) Chinese hamster ovary (CHO-K1) cells stably expressing rat (r)M1 were purchased from the American Type Culture Collection and cultured according to their indicated protocol. CHO cells stably expressing human (h)M2, hM3, and hM5 were described previously (Levey, et al., 1991); hM1 and hM4 cDNAs were purchased from Missouri S&T cDNA Resource; rM4 cDNA was provided by T. I. Bonner (National Institutes of Health, Bethesda, Md.). rM2 and rM3 were cloned from a rat brain cDNA library and sequence verified. hM1, rM2, rM3, hM4, and rM4 cDNAs were used to stably transfect CHO-K1 cells purchased from the American Type Culture Collection using Lipofectamine2000. To make stable rM2, hM2, rM3, hM4, and rM4 cell lines for use in calcium mobilization assays, these cells also were stably transfected with a chimeric G-protein (Gqi5) (provided by B. R. Conklin, University of California, San Francisco) using Lipofectamine 2000. rM1, hM1, rM3, hM3, rM5, and hM5 cells were grown in Ham's F-12 medium containing 10% heat-inactivated fetal bovine serum (FBS), 20 mM HEPES, and 50 μg/mL G418 sulfate. rM2-Gqi5, hM2-Gqi5, and hM4-Gqi5 cells were grown in the same medium also containing 500 μg/mL Hygromycin B. Stable rM4-Gqi5 cells were grown in DMEM containing 10% heat-inactivated FBS, 20 mM HEPES, 400 μg/mL G418 sulfate, and 500 μg/mL Hygromycin B.
(§2) For high throughput measurement of agonist-evoked increases in intracellular calcium, CHO-K1 cells stably expressing muscarinic receptors were plated in growth medium lacking G418 and hygromycin at 15,000 cells/20 μL/well in Greiner 384-well black-walled, tissue culture (TC)-treated, clear-bottom plates (VWR). Cells were incubated overnight at 37° C. and 5% CO2. The next day, cells were washed using an ELX 405 (BioTek) with four washes (80 μL) of assay buffer then aspirated to 20 μL. Next, 20 μL of 16 μM Fluo-4/acetoxymethyl ester (Invitrogen, Carlsbad, Calif.) prepared as a 2.3 mM stock in DMSO and mixed in a 1:1 ratio with 10% (w/v) Pluronic F-127 and diluted in assay buffer was added to the wells and the cell plates were incubated for 50 min at 37° C. and 5% CO2. Dye was removed by washing with the ELX 405 (four 80 μL washes of assay buffer) then aspirated to 20 μL. Compound master plates were formatted in an 11 point CRC format (1:3 dilutions) in 100% DMSO with a starting concentration of 10 mM using the BRAVO liquid handler (Agilent). Test compound CRCs were then transferred to daughter plates (240 nL) using the Echo acoustic plate reformatter (Labcyte, Sunnyvale, Calif.) and then diluted into assay buffer (40 μL) to a 2× stock using a Thermo Fisher Combi (Thermo Fisher Scientific, Waltham, Mass.).
(§3) Calcium flux was measured using the Functional Drug Screening System (FDSS) 6000 (Hamamatsu Corporation, Tokyo, Japan) as an increase in the fluorescent static ratio. Compounds were applied to cells (20 μL, 2×) using the automated system of the FDSS 6000 at 4 s into the 300 s protocol and the data were collected at 1 Hz. At 144 s into the 300 s protocol, 10 μL of an EC20 concentration of the muscarinic receptor agonist acetylcholine was added (5×), followed by the addition of 12 μL an EC80 concentration of acetylcholine at the 230 s time point (5×). Agonist activity was analyzed as a concentration-dependent increase in calcium mobilization upon compound addition. Emax values for agonist activity are expressed relative to the maximum for acetylcholine. Positive allosteric modulator activity was analyzed as a concentration-dependent increase in the EC20 acetylcholine response. Antagonist activity was analyzed as a concentration-dependent decrease in the EC80 acetylcholine response. Concentration-response curves were generated using a four-parameter logistical equation in XLfit curve fitting software (IDBS, Bridgewater, N.J.) for Excel (Microsoft, Redmond, Wash.) or Prism (GraphPad Software, Inc., San Diego, Calif.).

human mAChR M1 [2] = target: T1, human mAChR M1; test: mAChR M1 cell-based functional assay (calcium mobilization), PAM activity: increase in the EC20 acetylcholine response; conditions: CHO-K1 cells expressing hM1; calcium flux (Fluo-4); potentiation of EC20 acetylcholine response
From the text: as §1, §2, §3

Compound	EC50 (human mAChR M1 [1]) [µM]	Emax (human mAChR M1 [1]) [%]	EC50 (human mAChR M1 [2]) [µM]	Emax (human mAChR M1 [2]) [%]
Cn1ccc(-c2ccc(Cc3cc(C(=O)NC4CCOCC4)nc(-n4cccn4)c3)cc2)n1 [Compound 30, 4-(4-(1-methyl-1H-pyrazol-3-yl)benzyl)-6-(1H-pyrazol-1-yl)-N-(tetrahydro-2H-pyran-4-yl)picolinamide]	> 10	< 5	–	65
Cc1c(Cc2ccc(-c3ccn(C)n3)cc2)cc(C(=O)NC[C@@H]2CCCO2)nc1-c1ccn(C)n1 [Compound 15, (S)-5-methyl-6-(1-methyl-1H-pyrazol-3-yl)-4-(4-(1-methyl-1H-pyrazol-3-yl)benzyl)-N-((tetrahydrofuran-2-yl)methyl)picolinamide]	> 10	< 5	4.61	82
Cc1c(Cc2ccc(-c3ccn(C)n3)cc2)cc(C(=O)NC2CC3(COC3)C2)nc1-c1ccn(C)n1 [Compound 11, 5-methyl-6-(1-methyl-1H-pyrazol-3-yl)-4-(4-(1-methyl-1H-pyrazol-3-yl)benzyl)-N-(2-oxaspiro[3.3]heptan-6-yl)picolinamide]	> 10	< 5	4.72	88
Cc1c(Cc2ccc(-c3ccn(C)n3)cc2)cc(C(=O)NC2CCOCC2)nc1-n1cccn1 [Compound 42, 5-methyl-4-(4-(1-methyl-1H-pyrazol-3-yl)benzyl)-6-(1H-pyrazol-1-yl)-N-(tetrahydro-2H-pyran-4-yl)picolinamide]	> 10	< 5	–	83
Cn1ccc(-c2ccc(Cc3cc(C(=O)N[C@H]4CCCC[C@@H]4O)nc(-c4ccn(C)n4)c3)cc2)n1 [Compound 34, N-((1S,2S)-2-hydroxycyclohexyl)-6-(1-methyl-1H-pyrazol-3-yl)-4-(4-(1-methyl-1H-pyrazol-3-yl)benzyl)picolinamide]	> 10	< 5	2.02	63
Cn1ccc(-c2ccc(Cc3cc(C(=O)N[C@H]4CCCC[C@@H]4O)nc(-n4cccn4)c3)cc2)n1 [Compound 29, N-((1S,2S)-2-hydroxycyclohexyl)-4-(4-(1-methyl-1H-pyrazol-3-yl)benzyl)-6-(1H-pyrazol-1-yl)picolinamide]	> 10	< 5	2.1	73
Cc1nc(-c2ccc(Cc3cc(C(=O)N[C@H]4CCOC[C@@H]4O)nc(-n4cccn4)c3C)cc2)co1 [Compound 45, N-((3R,4S)-3-hydroxytetrahydro-2H-pyran-4-yl)-5-methyl-4-(4-(2-methyloxazol-4-yl)benzyl)-6-(1H-pyrazol-1-yl)picolinamide]	> 10	8	0.863	47
Cc1nc(-c2ccc(Cc3cc(C(=O)N[C@H]4CCCC[C@@H]4O)nc(-n4cccn4)c3)cc2)co1 [Compound 22, N-((1S,2S)-2-hydroxycyclohexyl)-4-(4-(2-methyloxazol-4-yl)benzyl)-6-(1H-pyrazol-1-yl)picolinamide]	≥ 10	11	0.634	86
Cn1ccc(-c2ccc(Cc3cc(C(=O)N[C@H]4CCOC[C@@H]4O)nc(-c4ccn(C)n4)c3)cc2)n1 [Compound 37, N-((3R,4S)-3-hydroxytetrahydro-2H-pyran-4-yl)-6-(1-methyl-1H-pyrazol-3-yl)-4-(4-(1-methyl-1H-pyrazol-3-yl)benzyl)picolinamide]	> 10	< 5	1.56	76
Cc1c(Cc2ccc(-c3ccn(C)n3)cc2)cc(C(=O)NCC2CCOCC2)nc1-c1ccn(C)n1 [Compound 14, 5-methyl-6-(1-methyl-1H-pyrazol-3-yl)-4-(4-(1-methyl-1H-pyrazol-3-yl)benzyl)-N-((tetrahydro-2H-pyran-4-yl)methyl)picolinamide]	> 10	< 5	–	74

More lines, now with the values ahead:

EC50 (human mAChR M1 [1]) [µM]	Emax (human mAChR M1 [1]) [%]	EC50 (human mAChR M1 [2]) [µM]	Emax (human mAChR M1 [2]) [%]	Compound
> 10	< 5	7.99	80	Cc1c(Cc2ccc(-c3ccn(C)n3)cc2)cc(C(=O)N[C@H]2CC[C@@H]2O)nc1-c1ccn(C)n1 [Compound 13, N-((1S,2S)-2-hydroxycyclobutyl)-5-methyl-6-(1-methyl-1H-pyrazol-3-yl)-4-(4-(1-methyl-1H-pyrazol-3-yl)benzyl)picolinamide]
> 10	< 5	2.89	91	Cc1c(Cc2ccc(-n3cccn3)cc2)cc(C(=O)NC2CCOCC2(C)C)nc1-c1ccn(C)n1 (stereo not drawn) [Compound 64, 4-(4-(1H-pyrazol-1-yl)benzyl)-N-(3,3-dimethyltetrahydro-2H-pyran-4-yl)-5-methyl-6-(1-methyl-1H-pyrazol-3-yl)picolinamide]
> 10	< 5	0.906	81	Cc1c(Cc2ccc(-n3cccn3)cc2)cc(C(=O)N[C@H]2CCCC[C@@H]2O)nc1-c1ccn(C)n1 [Compound 56, 4-(4-(1H-pyrazol-1-yl)benzyl)-N-((1S,2S)-2-hydroxycyclohexyl)-5-methyl-6-(1-methyl-1H-pyrazol-3-yl)picolinamide]
9.81	18	0.542	86	Cc1c(Cc2ccc(-c3ccn(C)n3)cc2)cc(C(=O)N[C@H]2CCOC[C@@H]2O)nc1-c1ccn(C)n1 [Compound 9, N-((3R,4S)-3-hydroxytetrahydro-2H-pyran-4-yl)-5-methyl-6-(1-methyl-1H-pyrazol-3-yl)-4-(4-(1-methyl-1H-pyrazol-3-yl)benzyl)picolinamide]
> 10	< 5	–	79	Cc1c(Cc2ccc(-n3cccn3)cc2)cc(C(=O)N[C@H]2CC[C@@H]2O)nc1-c1ccn(C)n1 [Compound 60, 4-(4-(1H-pyrazol-1-yl)benzyl)-N-((1S,2S)-2-hydroxycyclobutyl)-5-methyl-6-(1-methyl-1H-pyrazol-3-yl)picolinamide]
> 10	< 5	–	64	Cc1c(Cc2ccc(-n3cccn3)cc2)cc(C(=O)NCC2CCOCC2)nc1-c1ccn(C)n1 [Compound 61, 4-(4-(1H-pyrazol-1-yl)benzyl)-5-methyl-6-(1-methyl-1H-pyrazol-3-yl)-N-((tetrahydro-2H-pyran-4-yl)methyl)picolinamide]
> 10	9	5.03	84	Cc1c(Cc2ccc(-c3ccn(C)n3)nc2)cc(C(=O)N[C@H]2CCC[C@@H]2O)nc1-n1cccn1 [Compound 52, N-((1S,2S)-2-hydroxycyclopentyl)-5-methyl-4-((6-(1-methyl-1H-pyrazol-3-yl)pyridin-3-yl)methyl)-6-(1H-pyrazol-1-yl)picolinamide]
